Laboratory results as given in the NIST ThermoML archive (doi:10.1016/j.jct.2015.07.028).

Conditions: Liquid, Closed cell (Static) method

O [water]
Conditions | vapor or sublimation pressure [kPa]
276.1 K | 0.753
276.16 K | 0.76
278.47 K | 0.894
280.8 K | 1.05
283.11 K | 1.223
285.49 K | 1.43
285.52 K | 1.44
288.24 K | 1.708
290.65 K | 1.994
290.71 K | 2.01
293.51 K | 2.398
295.49 K | 2.697
295.58 K | 2.707
298.22 K | 3.182
298.33 K | 3.202
300.72 K | 3.703
300.8 K | 3.708
302.99 K | 4.213
305.57 K | 4.882
305.6 K | 4.869
307.8 K | 5.499
310.42 K | 6.36
310.49 K | 6.404
312.73 K | 7.192
315.28 K | 8.236
315.37 K | 8.313
317.67 K | 9.333
320.11 K | 10.56
320.2 K | 10.63
322.5 K | 11.93
322.54 K | 11.99
325.01 K | 13.51
